From ChEMBL document CHEMBL3045762, “Studies on arylfuran derivatives. Part XI. Synthesis, characterisation and biological studies on some Mannich bases carrying 2,4-dichlorophenylfurfural moiety” (2000) come the findings set out here.

Molecules are shown by their SMILES. Calls of active or inactive are those of the source. The calls are words filed in the database; no cut-off is given here.

Assay [1] relates to Amaranthus viridis. Briefly: Pre-emergence herbicidal activity against Amaranthus viridis assessed as reduction of seed germination at 1 ppm after 7 to 21 days by pot test. Format: functional, organism-based.
Assay [2] concerns Digitaria sanguinalis. In words: Pre-emergence herbicidal activity against Digitaria sanguinalis (hairy crabgrass) assessed as reduction of seed germination at 1 ppm after 7 to 21 days by pot test. Format: functional, organism-based.
For assay [3], the system named is Amaranthus viridis. In words: Post-emergence herbicidal activity against Amaranthus viridis assessed as reduction of seed germination at 0.48 ppm after 5 to 25 days by pot test. The format is functional, organism-based.
Assay [4] concerns Cynodon dactylon. In words: Post-emergence herbicidal activity against Cynodon dactylon assessed as reduction of seed germination at 0.48 ppm after 5 to 25 days by pot test. The format is functional, organism-based.
Assay [5] deals with Digitaria sanguinalis. In words: Post-emergence herbicidal activity against Digitaria sanguinalis (hairy crabgrass) assessed as reduction of seed germination at 0.48 ppm after 5 to 25 days by pot test. Format: functional, organism-based.
Assay [6] has as its system Euphorbia hirta. Briefly: Post-emergence herbicidal activity against Euphorbia hirta assessed as reduction of seed germination at 0.48 ppm after 5 to 25 days by pot test. The format is functional, organism-based.
The test system of assay [7] is Parthenium hysterophorus. Briefly: Post-emergence herbicidal activity against Parthenium hysterophorus assessed as reduction of seed germination at 0.48 ppm after 5 to 25 days by pot test. The format is functional, organism-based.
Assay [8] deals with Amaranthus viridis. In words: Pre-emergence herbicidal activity against Amaranthus viridis assessed as reduction of seed germination at 1.50 ppm after 7 to 21 days by pot test. The format is functional, organism-based.
For assay [9], the system named is Digitaria sanguinalis. In words: Pre-emergence herbicidal activity against Digitaria sanguinalis (hairy crabgrass) assessed as reduction of seed germination at 1.50 ppm after 7 to 21 days by pot test. The format is functional, organism-based.
The subject of assay [10] is Digitaria sanguinalis. In words: Post-emergence herbicidal activity against Digitaria sanguinalis (hairy crabgrass) assessed as reduction of seed germination at 1000 ppm after 5 to 25 days by pot test. The format is functional, organism-based.
For assay [11], the system named is Amaranthus viridis. In words: Pre-emergence herbicidal activity against Amaranthus viridis assessed as reduction of seed germination at 1000 ppm after 7 to 21 days by pot test. Format: functional, organism-based.
Assay [12] relates to Digitaria sanguinalis. In words: Pre-emergence herbicidal activity against Digitaria sanguinalis (hairy crabgrass) assessed as reduction of seed germination at 1000 ppm after 7 to 21 days by pot test. The format is functional, organism-based.
In the next assay the test system is Alternaria solani. In words: Antifungal activity against Alternaria solani assessed as fungal growth (reference value: 52 mm). Format: functional.
The next assay relates to Plasmopara viticola. Briefly: Antifungal activity against Plasmopara viticola assessed as infection (reference value: 100%). Format: functional.
A further assay concerns Fusarium sp. Briefly: Antifungal activity against Fusarium sp. assessed as fungal growth (reference value: 77 mm). The format is functional.
Assay [13] relates to Parthenium hysterophorus. In words: Post-emergence herbicidal activity against Parthenium hysterophorus assessed as reduction of seed germination at 1000 ppm after 5 to 25 days by pot test. The format is functional, organism-based.
Assay [14] concerns Euphorbia hirta. Briefly: Post-emergence herbicidal activity against Euphorbia hirta assessed as reduction of seed germination at 1000 ppm after 5 to 25 days by pot test. The format is functional, organism-based.
For assay [15], the system named is Amaranthus viridis. Briefly: Post-emergence herbicidal activity against Amaranthus viridis assessed as reduction of seed germination at 1000 ppm after 5 to 25 days by pot test. The format is functional, organism-based.
Assay [16] concerns Cynodon dactylon. Briefly: Post-emergence herbicidal activity against Cynodon dactylon assessed as reduction of seed germination at 1000 ppm after 5 to 25 days by pot test. The format is functional, organism-based.
The test system of assay [17] is Parthenium hysterophorus. Briefly: Post-emergence herbicidal activity against Parthenium hysterophorus assessed as reduction of seed germination at 1.22 ppm after 5 to 25 days by pot test. Format: functional, organism-based.
The test system of assay [18] is Euphorbia hirta. Briefly: Post-emergence herbicidal activity against Euphorbia hirta assessed as reduction of seed germination at 1.22 ppm after 5 to 25 days by pot test. The format is functional, organism-based.
The test system of assay [19] is Cynodon dactylon. In words: Post-emergence herbicidal activity against Cynodon dactylon assessed as reduction of seed germination at 1.22 ppm after 5 to 25 days by pot test. Format: functional, organism-based.
For assay [20], the system named is Amaranthus viridis. In words: Post-emergence herbicidal activity against Amaranthus viridis assessed as reduction of seed germination at 1.22 ppm after 5 to 25 days by pot test. The format is functional, organism-based.
Assay [21] has as its system Digitaria sanguinalis. In words: Post-emergence herbicidal activity against Digitaria sanguinalis (hairy crabgrass) assessed as reduction of seed germination at 1.22 ppm after 5 to 25 days by pot test. Format: functional, organism-based.

Regarding `CCC(CC)Nc1c([N+](=O)[O-])cc(C)c(C)c1[N+](=O)[O-]`, the result in the assay with Amaranthus viridis [1] and in the assay on Digitaria sanguinalis [2] was Active.

On to `C[n+]1ccc(-c2cc[n+](C)cc2)cc1`, for which the result with Amaranthus viridis [3], in the assay on Cynodon dactylon [4], in the assay on Digitaria sanguinalis [5], in the assay with Euphorbia hirta [6] and in the assay with Parthenium hysterophorus [7] was Active.

Take `CCNc1nc(Cl)nc(NC(C)C)n1`: the result with Amaranthus viridis [8] and in the assay with Digitaria sanguinalis [9] was Active.

For `Cc1cc(OCc2n[nH]c(=S)n2/N=C/c2ccc(-c3ccc(Cl)cc3Cl)o2)ccc1Cl`, the result in the assay on Digitaria sanguinalis [10], with Amaranthus viridis [11], in the assay on Digitaria sanguinalis [12], in the assay on Parthenium hysterophorus [13], with Euphorbia hirta [14] and in the assay with Amaranthus viridis [15] was inactive. In addition, the outcome in the assay on Cynodon dactylon [16] was inactive. Further, the values for the Activity in the assay with Alternaria solani, in the assay with Plasmopara viticola and in the assay on Fusarium sp. were 56 mm, 100% and 76 mm, respectively.

Turning to `Fc1ccc(NCn2nc(COc3ccc(Cl)cc3Cl)n(/N=C/c3ccc(-c4ccc(Cl)cc4Cl)o3)c2=S)cc1Cl`, the outcome in the assay on Digitaria sanguinalis [10], in the assay on Amaranthus viridis [11], in the assay with Digitaria sanguinalis [12], with Parthenium hysterophorus [13], with Euphorbia hirta [14] and in the assay on Amaranthus viridis [15] was inactive. Also, the result with Cynodon dactylon [16] was inactive. In addition, the figures for the Activity in the assay on Alternaria solani, in the assay on Plasmopara viticola and in the assay on Fusarium sp. were 51 mm, 100% and 73 mm, respectively.

For the compound `S=c1[nH]nc(COc2ccccc2Cl)n1/N=C/c1ccc(-c2ccc(Cl)cc2Cl)o1`, the outcome with Digitaria sanguinalis [10], in the assay on Amaranthus viridis [11], in the assay with Digitaria sanguinalis [12], in the assay on Parthenium hysterophorus [13], with Euphorbia hirta [14] and with Amaranthus viridis [15] was inactive. Also, the outcome in the assay with Cynodon dactylon [16] was inactive. The Activity in the assay with Alternaria solani was found to be 66 mm; in the assay on Plasmopara viticola, 100%; in the assay with Fusarium sp. it was 77.5 mm.

Take `Cc1cc(OCc2nn(CNc3ccc(F)c(Cl)c3)c(=S)n2/N=C/c2ccc(-c3ccc(Cl)cc3Cl)o2)ccc1Cl`: the outcome in the assay on Digitaria sanguinalis [10], in the assay with Amaranthus viridis [11], in the assay with Digitaria sanguinalis [12], in the assay with Parthenium hysterophorus [13], with Euphorbia hirta [14] and in the assay with Amaranthus viridis [15] was inactive. For the same compound, in the assay with Cynodon dactylon [16], the outcome was inactive. In addition, the Activity turned out to be 49 mm with Alternaria solani, 100% in the assay with Plasmopara viticola and 72 mm in the assay with Fusarium sp..

`CCCCC(O)(Cn1cncn1)c1ccc(Cl)cc1Cl` (stereo not given) [HEXACONAZOLE]: in the assay on Fusarium sp., the Activity is listed as 8 mm.

With `O=C(O)CNCP(=O)(O)O`, the outcome in the assay on Parthenium hysterophorus [17], with Euphorbia hirta [18], in the assay on Cynodon dactylon [19], in the assay on Amaranthus viridis [20] and in the assay on Digitaria sanguinalis [21] was Active.

Turning to `S=c1[nH]nc(COc2ccc(Cl)cc2)n1/N=C/c1ccc(-c2ccc(Cl)cc2Cl)o1`, the outcome with Digitaria sanguinalis [10], in the assay with Amaranthus viridis [11], in the assay with Digitaria sanguinalis [12], with Parthenium hysterophorus [13], with Euphorbia hirta [14] and with Amaranthus viridis [15] was inactive. For the same compound, the result in the assay on Cynodon dactylon [16] was inactive. Also, the Activity came out at 60 mm with Alternaria solani, 100% with Plasmopara viticola and 79 mm with Fusarium sp..

`Fc1ccc(NCn2nc(COc3ccccc3Cl)n(/N=C/c3ccc(-c4ccc(Cl)cc4Cl)o3)c2=S)cc1Cl`: the result in the assay on Digitaria sanguinalis [10], with Amaranthus viridis [11], in the assay with Digitaria sanguinalis [12], in the assay on Parthenium hysterophorus [13], in the assay with Euphorbia hirta [14] and in the assay with Amaranthus viridis [15] was inactive. In addition, in the assay on Cynodon dactylon [16], the result was inactive. The Activity in the assay with Alternaria solani stood at 57 mm; in the assay on Plasmopara viticola, 100%; in the assay on Fusarium sp., 75 mm.

In the case of `S=c1[nH]nc(COc2ccc(Cl)cc2Cl)n1/N=C/c1ccc(-c2ccc(Cl)cc2Cl)o1`, the result with Digitaria sanguinalis [10], with Amaranthus viridis [11], in the assay with Digitaria sanguinalis [12], with Parthenium hysterophorus [13], in the assay with Euphorbia hirta [14] and in the assay with Amaranthus viridis [15] was inactive. For the same compound, the outcome in the assay on Cynodon dactylon [16] was inactive. Besides, the Activity in the assay on Alternaria solani came out at 58 mm; in the assay with Plasmopara viticola, 100%; in the assay on Fusarium sp., 80 mm.

Turning to `Fc1ccc(NCn2nc(COc3ccc(Cl)cc3)n(/N=C/c3ccc(-c4ccc(Cl)cc4Cl)o3)c2=S)cc1Cl`, the outcome in the assay on Digitaria sanguinalis [10], in the assay on Amaranthus viridis [11], with Digitaria sanguinalis [12], in the assay with Parthenium hysterophorus [13], with Euphorbia hirta [14] and in the assay with Amaranthus viridis [15] was inactive. Further, the outcome in the assay with Cynodon dactylon [16] was inactive. Also, the figures for the Activity with Alternaria solani, in the assay on Plasmopara viticola and in the assay on Fusarium sp. were 52 mm, 100% and 75 mm, respectively.
